Test system: Langerhans cells
Test: corneum-barrier transmission: uptake into Langerhans cells after application to ear skin surface
Format: in vivo, mouse
Details: 7 weeks of age, 10 mg/mL applied to skin surface inside the ear, ears collected after 24 hours
Excerpt: To confirm that the skin-barrier function is impaired in FLG-gene deficient mice, a method was developed for evaluating skin-barrier function based on the amount of uptake of antigen into Langerhans cells that are antigen-presenting cells in epidermis, to examine the skin-barrier function in FLG^−/− mice and wild-type mice. In a conventional method for evaluating antigen uptake into Langerhans cells by externally applying antigen to the skin, reagents such as FITC that easily pass through the corneum barrier has been used. However, a change in the corneum-barrier transmission due to loss of filaggrin cannot be observed by the methods using reagents that easily pass through the corneum barrier. Thus the present inventors established for the first time a method for evaluating corneum-barrier transmission using sulfo-NHS-LC-biotin which is a cell-membrane impermeable, protein-biotinylating reagent. This method has enabled the observation of a change in corneum-barrier transmission. The structural formula of sulfo-NHS-LC-biotin is shown below. Sulfo-NHS-LC-biotin (#21335; Thermo Scientific) was applied to a FLG^−/− mouse and a wild-type littermate mouse at 7 weeks of age on the skin surface inside the ear, and the uptake into Langerhans cells was observed under a fluorescence microscope. […]

O=C(CCCCC1SCC2NC(=O)NC21)NCCCCCC(=O)ON1C(=O)CC(S(=O)(=O)[O-])C1=O.[Na+] (centres unmarked) [biotin, sulfo-NHS-LC-biotin]
biotin uptake into Langerhans cells (FLG−/− mouse): biotin (green) taken up was accumulated in Langerhans cell body (red)
biotin uptake into Langerhans cells (wild-type littermate mouse): no biotin (green) uptake into Langerhans cells (red) was observed
